Drawing on BindingDB's records for doi:10.7270/Q2XP73JZ (The Scripps Research Institute Molecular Screening Center, 2013), this text covers IC50 for 33 compounds.

Bounds are passed on as bounds.

The target of the assay is T1, Methionine--tRNA ligase (Trypanosoma brucei brucei (strain 927/4 GUTat10.1), UniProt Q38C91).
T1 sequence (Q38C91 whole entry): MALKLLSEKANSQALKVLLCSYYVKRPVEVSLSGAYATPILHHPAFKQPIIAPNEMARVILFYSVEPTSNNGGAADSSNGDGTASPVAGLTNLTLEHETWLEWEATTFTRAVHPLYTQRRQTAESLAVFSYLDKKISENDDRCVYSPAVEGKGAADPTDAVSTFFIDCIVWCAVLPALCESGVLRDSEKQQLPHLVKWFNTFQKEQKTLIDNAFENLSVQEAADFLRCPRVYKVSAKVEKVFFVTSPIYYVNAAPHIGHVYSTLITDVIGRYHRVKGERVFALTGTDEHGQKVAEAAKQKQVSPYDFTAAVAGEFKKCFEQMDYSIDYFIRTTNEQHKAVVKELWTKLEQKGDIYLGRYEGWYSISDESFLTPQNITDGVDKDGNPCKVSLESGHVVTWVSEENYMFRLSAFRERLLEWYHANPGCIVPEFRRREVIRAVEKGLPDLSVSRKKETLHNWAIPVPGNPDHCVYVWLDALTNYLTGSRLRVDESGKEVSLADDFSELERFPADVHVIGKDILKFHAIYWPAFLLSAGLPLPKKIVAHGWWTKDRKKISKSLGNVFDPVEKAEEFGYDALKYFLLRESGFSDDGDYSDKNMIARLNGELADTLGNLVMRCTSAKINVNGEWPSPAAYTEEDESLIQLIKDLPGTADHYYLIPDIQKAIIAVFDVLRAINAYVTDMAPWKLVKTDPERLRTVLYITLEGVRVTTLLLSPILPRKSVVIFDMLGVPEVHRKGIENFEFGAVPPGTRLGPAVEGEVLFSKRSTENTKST
One may read the IC50 as the midpoint of a concentration-inhibition curve. A high value points to a need for much substance. `COC(=O)Cn1c(CC(=O)Nc2ccc(Cl)cc2)c(O)n(-c2ccc(Cl)cc2)c1=S` gave an IC50 of 19.7 µM. Then `O=C(CSc1nc2ccc(Cl)cc2[nH]1)c1c[nH]c2ccccc12` [SMR000261830], with > 119 µM. Turning to `N#CC(N=Nc1cc(Cl)cc(Cl)c1)c1nnc2n1CCCCC2` (stereo not drawn), it took 16.6 µM to reach half-maximal inhibition (IC50). Then `Cc1csc(CNc2ncnc3ccc(-c4ccccc4Cl)cc23)c1` [SMR001318042], with > 119 µM.

Consider `Cc1cc2c(c(=O)n1CC1CCCO1)C(c1ccc3c(c1)OCO3)C(C#N)C(=N)O2` (stereo not drawn), for which the IC50 was > 119 µM. Then `c1ccc2[nH]c(N=NCc3c[nH]c4ccccc34)nc2c1` [1-(1H-benzimidazol-2-yl)-2-[(Z)-indol-3-ylidenemethyl]diazane], with 32.2 µM; and `COc1cc(CN=Nc2nc3ccccc3[nH]2)ccc1O` [SMR000212232], with 102 µM. In the case of `O=C(Cc1ccc(Br)cc1)NNC(=O)Nc1ccc(Cl)cc1` [SMR000227759], the IC50 is > 119 µM. Turning to `Oc1cc(N(CCc2ccccc2)C(=S)Nc2ccccc2)c(O)n1-c1ccc(Br)cc1` [1-[1-(4-bromophenyl)-2,5-bis(oxidanylidene)pyrrolidin-3-yl]-3-phenyl-1-(2-phenylethyl)thiourea], 0.46 µM corresponded to half-maximal inhibition (IC50). `Oc1cc(SCc2nc3ccccc3[nH]2)c(O)n1-c1cccc(Cl)c1` [SMR000143477] came in with an IC50 of 2.6 µM. To `Cc1cc(Br)cc(Br)c1OCC(=O)NNC(=O)Nc1ccccc1` [2-[(2,4-dibromo-6-methylphenoxy)acetyl]-N-phenylhydrazinecarboxamide] belongs > 4.39 µM; to `COc1ccc(NC(=O)Nc2cccc3cccnc23)cc1` [US9034574, XXIV], 2.82 µM. `O=C(OCC(=O)c1c[nH]c2ccccc12)c1ccc(OC(F)F)cc1` [[2-(1H-indol-3-yl)-2-oxidanylidene-ethyl] 4-[bis(fluoranyl)methoxy]benzoate]: the IC50 is > 119 µM. For the compound `CC(N=Nc1nc2ccccc2[nH]1)c1ccc2c(c1)OCO2` (stereo not drawn) [SMR000354227], the IC50 was > 119 µM. Regarding `COc1ccccc1NS(=O)(=O)c1cc(NC(=O)Nc2ccccc2)ccc1N1CCCCC1` [MLS000401499], the IC50 is > 119 µM. For the compound `COc1cc(OC)c(OC)cc1CN=Nc1nc2ccccc2[nH]1` [SMR000440059], the concentration for half-maximal inhibition (IC50) was > 119 µM.

As to `O=C(NCc1cc(Br)cc(Br)c1OC(=O)c1ccccc1[N+](=O)[O-])c1ccccc1`, the IC50 was > 119 µM. In the case of `O=C(Nc1ccccc1)Nc1ccc(S(=O)(=O)N2CCCCC2)cc1` [SMR000070822], the IC50 was > 119 µM. Then `COc1ccc(CC(=O)OCC(=O)Nc2ccc(Br)cc2)cc1` [SMR000353950], with > 119 µM. To `C=C(c1ccc(O)cc1)c1sc(=S)n(CCC(=O)O)c1O` [3-[(5Z)-5-[1-(4-hydroxyphenyl)ethylidene]-4-oxidanylidene-2-sulfanylidene-1,3-thiazolidin-3-yl]propanoic acid] belongs 9.47 µM; to `O=C(Nc1cccnc1)c1ccc(COc2cc(Cl)ccc2Cl)o1` [5-[(2,5-dichlorophenoxy)methyl]-N-(3-pyridinyl)-2-furancarboxamide], > 119 µM; to `Cc1ccc(C(=O)NN2C(=O)/C(=C/c3nc4ccccc4[nH]3)SC2=S)cc1`, > 119 µM. To `Cc1cc(Cl)ccc1OCCCC(=O)NNC(=O)c1ccccc1O` [N'-[4-(4-chloro-2-methylphenoxy)butanoyl]-2-hydroxybenzohydrazide] belongs > 119 µM.

In the case of `COc1ccc(NC(=O)COC(=O)CCCOc2ccc(Cl)cc2Cl)cc1` [4-(2,4-dichlorophenoxy)butanoic acid [2-(4-methoxyanilino)-2-oxoethyl] ester], the IC50 was > 119 µM. Regarding `O=C(CSc1ccc(-c2nc3ccccc3[nH]2)cn1)Nc1ccc(S(=O)(=O)N2CCCC2)cc1` [MLS000548715], the IC50 is > 119 µM. Then `Cc1[nH]c2ccccc2c1CN=Nc1nc2ccccc2[nH]1` [N-(1H-Benzoimidazol-2-yl)-N'-[1-(2-methyl-1H-indol-3-yl)-meth-(E)-ylidene]-hydrazine], with 36.9 µM. To `Fc1ccccc1CSc1nc2ncc(Br)cc2[nH]1` [6-bromanyl-2-[(2-fluorophenyl)methylsulfanyl]-1H-imidazo[4,5-b]pyridine] belongs > 119 µM; to `Cc1ccc2nc(-c3ccc(SCC(=O)Nc4ccc5c(c4)OCCO5)nc3)[nH]c2c1` [N-(2,3-dihydro-1,4-benzodioxin-6-yl)-2-[[5-(6-methyl-1H-benzimidazol-2-yl)-2-pyridinyl]thio]acetamide], > 119 µM. Then `COC(=O)C(C=Nc1ccccc1)NC(=O)c1ccc(Cl)cc1Cl` (stereo not drawn), with 2.71 µM; and `Clc1cccc(N=NC(Cc2nc3ccccc3[nH]2)c2ccccc2)c1` (stereo not drawn) [SMR000263830], with 3.09 µM; and `COc1cccc(NC(=O)CSC(N)=O)c1` [S-[2-(3-methoxyanilino)-2-oxoethyl] thiocarbamate], with 1.57 µM. In the case of `N#Cc1ccccc1CSc1ccc(-c2nc3ccccc3[nH]2)cn1` [2-[5-(1H-Benzoimidazol-2-yl)-pyridin-2-ylsulfanylmethyl]-benzonitrile], the IC50 is > 119 µM.

As for `N#Cc1ccccc1CSc1nc2cc(Br)c[nH]c-2n1` [2-[(6-bromo-1H-imidazo[4,5-b]pyridin-2-yl)sulfanylmethyl]benzonitrile], the IC50 was > 119 µM.
